This is an account of results in patent US20030162803A1, “Anhydrovinblastine for the treatment of cancer” (priority 1997, published 2003).

The IC50 is the concentration needed to halve the response being measured.

Where a name gives a salt, the structure may show the parent alone. Read-outs that look alike come from different tables or passages of the source. A value given as a limit tells only on which side of the number the result lay.

The test system of data set [1] is Nb2-U17 lymphoma transplants. The data set is described as follows: Rat U17 lymphoma model (Nb2-U17 tumor transplants). Type of data set: in vivo, Nb rats. Conditions: for anti-tumor potency compared: 50% of individual maximum tolerated doses, FIG. 3. The source says:
The U17 cell line was originally derived from a transplantable malignant lymphoma that arose spontaneously in male Noble rats (British Columbia Cancer Research Centre Joint Animal Breeding Facility with parents obtained from the National Institutes of Health, Bethesda, Md.). The cell line is prolactin dependent and can readily be cultured in vitro. U17 derived solid tumors are generated by subcutaneous injection (via the trocar method) of a small (2 mm^2) piece of tumor tissue obtained from male Noble rat. Tumor tissue used for the implants arose two weeks after injection of 5×10^6 U17 cells (from culture) subcutaneously in the nape of the neck. For assessing the anti-tumor activity of AHVB, tumor bearing animals (2-4 gm tumors) were given a single treatment of drug and tumor size was measured as a function of time following treatment. The anti-tumor activity was assessed at a series of different doses in order to determine the maximum therapeutic dose of AHVB. Comparative studies between vincristine, vinblastine and AHVB were performed. For these studies anti-tumor activity was determined at the maximum therapeutic dose of each drug.
Cultures of the non-metastatic, pre-T Nb2 lymphoma line originally developed at The University of British Columbia and designated Nb2-U17 (Anticancer Research 14:2485-2492, 1994), and are available from the British Columbia Cancer Research Centre. Cells from exponentially growing Nb2-U17 suspension cultures were injected subcutaneously into methoxyflurane-anaesthetised, mature male Nb rats (5 rats; 310-380 grams; 5×10^6 cells/rat in 1 ml of culture medium) at the nape of the neck using a 1.5″ 20-gauge needle. […]
The oncolytic effects of each of the three drugs were assessed at a subacutely toxic dose, determined for each drug in preliminary studies using non-tumor-bearing, mature male Nb rats, i.e. 3.0, 2.0 and 0.7 mg/kg for AHVB, Navelbine™ and vincristine, respectively as illustrated in FIG. 2. In addition, each drug was assessed at 50% and 25% of its subacutely toxic dose. […]

Data set [2] is described as follows: Range-finding acute (14 day) single dose toxicity in healthy male Nb rats. The data set is classed as in vivo. The note with it: single intraperitoneal injection; for subacutely toxic dosage (highest dose which allowed survival of all animals in a group): 14 day. As for the experimental part:
Range-finding acute (14 day), single dose toxicity studies were performed in healthy male Nb rats in order to determine the maximum tolerated dose of vincristine sulfate, Navelbine T and AHVB when administered as a single, intraperitoneal injection in these rodents (see Table 2).
To this end, healthy non-tumor bearing male Nb rats (weight range 333-399 grams) were divided in groups of 3 animals. Each group was used to test one drug at one dosage. The volumes within which the drugs were administered depended on the concentration of the drug solution (in saline) and the weight of the animals, and ranged from 0.1-1.0 ml. Saline was used as a control. The highest dose of each drug which allowed survival of all animals in a group (3 out of 3) was taken as the subacutely toxic dosage for the drug, i.e. 0.7 mg/kg for vincristine, 2.0 mg/kg for Navelbine™ and 3.0 mg/kg for AHVB.
The health of the animals was assessed by daily weight measurements in addition to behavioural indications of stress. Animals continued to be monitored throughout the complete 14 day study period. Animals were euthanized in the event of signs of severe stress or weight loss in excess of 20%. All animals were necropsied at the end of the study period or at the time of premature euthanasia.

In data set [3] the test system is H460 human non-small cell lung carcinoma. The data set is described as follows: MTT cytotoxicity assay, H460. Type of data set: cell-based. The note with it: read-out: Drug Ic50. In general terms: Tetrazolium assays rely on reduction of a dye to a coloured formazan, in cell work by metabolically active cells.
Protocol: (§1) Cytotoxicity experiments on AHVB were performed as direct comparisons with vincristine and Navelbine™ in order to assess its inherent antineoplastic profile against a variety of tumor cell types relative to other relevant vinca alkaloids. The cytotoxicity of AHVB was investigated in vitro against a panel of tumor cell lines of varying lineage in order to determine the specificity of its antitumor activity with respect to cell type.
(§2) Standard dose response cytotoxicity assays (R. Mosmass, J. Immunol. Meth., 65:55-64, 1983) were utilized to determine the IC50 (drug concentration required to induce 50% inhibition of tumor cell growth) for vincristine, Navelbine™ and AHVB. The indicated cell lines were obtained from either the ATCC or NCI tumor repository and were cultured in tissue culture media by standard techniques well known to those skilled in the art, prior to dilution to a defined cell concentration required for the studies in 96 well plates.
(§3) A wide range of drug concentrations were exposed to tumor cells growing at log phase in 96-well microtitre plates. Cell concentrations depended on the cell line as well as the length of time to be cultured. […] MCF7 cells were plated at a concentration of 7,000 and 1,500 cells per well for studies lasting 3 and 7 days, respectively. H460 cells were plated at a concentration of 2,500 and 1,000 cells per well for studies lasting 3 and 7 days, respectively. K562 cells were plated at a concentration of 1,500 and 10,000 cells per well for studies lasting 1 and 3 days, respectively. LS180 cells were plated at a concentration of 5,000 and 20,00 cells per well for studies lasting 3 and 7 days, respectively.
(§4) Subsequently the plates were incubated for the indicated time period. At specified times, cells were washed and subsequently exposed to the dye inclusion marker MTT (3-(4,5-dimethylthiazol-2-yl)-2,5-diphenyl tetrazolium), which accumulated into viable cells. MTT was added to the cells at a final concentration of 50 μg per well. After a 4 hour incubation, the cells were washed free of media and unreacted MTT, prior to addition of DMSO which was required to solubilize the insoluble formazan precipitate that formed in viable cells. After the sample was mixed through repeated pipetting, the coloured product was measured using a plate reader operating at 570 nm. The absorbance values obtained for cells cultured in the absence of drug was assumed to represent 100% viability.
Data set [4] deals with P388 lymphocytic leukaemia. The data set is described as follows: MTT cytotoxicity assay, P388. The note with it: for IC50: read-out: Drug Ic50.
Protocol: Standard dose response cytotoxicity assays (R. Mosmass, J. Immunol. Meth., 65:55-64, 1983) were utilized to determine the IC50 (drug concentration required to induce 50% inhibition of tumor cell growth) for vincristine, Navelbine™ and AHVB.
A wide range of drug concentrations were exposed to tumor cells growing at log phase in 96-well microtitre plates. Cell concentrations depended on the cell line as well as the length of time to be cultured. Typically, P388 cells were plated at a concentration of 30,000, 2,000 and 750 cells per well for studies lasting 1, 3 and 7 days, respectively. MCF7 cells were plated at a concentration of 7,000 and 1,500 cells per well for studies lasting 3 and 7 days, respectively. H460 cells were plated at a concentration of 2,500 and 1,000 cells per well for studies lasting 3 and 7 days, respectively. K562 cells were plated at a concentration of 1,500 and 10,000 cells per well for studies lasting 1 and 3 days, respectively. LS180 cells were plated at a concentration of 5,000 and 20,00 cells per well for studies lasting 3 and 7 days, respectively. After plating all cell lines were incubated (CO2 incubator at 37° C., 5% CO2) for 24 hours prior to addition of the cytotoxic agent (See Table 1).
as §4
A cytotoxicity curve was generated to estimate the IC50 of vincristine, Navelbine™ and AHVB in the murine P388 cell line (see FIG. 5). In this study, P388 cells derived from an ascitic tumor grown in BDF1 were first separated from red cells employing Ficoll-Paque. Isolated white cells were washed twice then placed in serum containing tissue culture media (1×10^5 cells per ml of RPMI 1640 supplemented with L-glutamine, penicillin, streptomycin and 10% fetal bovine serum) and cultured for 2 hours. All non-adherent cells were collected and that cell population was defined as P388 cells and used for cytotoxicity assays 24 hours later.
The test system of data set [5] is LS180 human colon carcinoma. The data set is described as follows: MTT cytotoxicity assay, LS180. Type of data set: cell-based. Conditions: read-out: Drug Ic50.
Protocol: as §1, §2, §3, §4
Data set [6] concerns MCF7 human breast carcinoma. The data set is described as follows: MTT cytotoxicity assay, MCF7. Conditions: read-out: Drug Ic50. Type of data set: cell-based.
Protocol: as §1, §2, §3, §4
Data set [7] concerns K562 human erythroleukaemia. The data set is described as follows: MTT cytotoxicity assay, K562. The data set is classed as cell-based. Conditions: read-out: Drug Ic50.
Protocol: as §1, §2, §3, §4
Setting [8] is: Homo sapiens, NCI-H460, 72 h, H460, exposure time 3 days.
[9] abbreviates: Homo sapiens, NCI-H460, 168 h, H460, exposure time 7 days.
[10] abbreviates: Homo sapiens, 72 h, LS180, exposure time 3 days.
Where [11] appears, read: Homo sapiens, 168 h, LS180, exposure time 7 days.
The mark [12] stands for this setting: Homo sapiens, 72 h, MCF7, exposure time 3 days.
Where [13] appears, read: Homo sapiens, 168 h, MCF7, exposure time 7 days.
The mark [14] stands for this setting: Homo sapiens, 24 h, K562, exposure time 1 day.
Setting [15] is: Homo sapiens, 72 h, K562, exposure time 3 days.

As for `CCC1=C[C@H]2CN(CCc3c([nH]c4ccccc34)[C@@](C(=O)OC)(c3cc4c(cc3OC)N(C)[C@H]3[C@@](O)(C(=O)OC)[C@H](OC(C)=O)[C@]5(CC)C=CCN6CC[C@]43[C@@H]65)C2)C1` [AHVB, 3′,4′-anhydrovinblastine], the anti-tumor potency compared result in data set [1] is on record as “less potent than vincristine”. For the same molecule, the “Mortality (surviving rats/injected rats)” value in data set [2] (4.4 mg/kg) and in data set [2] (10 mg/kg) was 0 surviving rats/injected rats throughout. Moreover, the “subacutely toxic dosage (highest dose which allowed survival of all animals in a group)” value (“subacutely toxic dosage” below) in data set [2] was 3.0 mg/kg. The IC50 in data set [3] (H460, exposure time 3 days) is 10 nM; in data set [3] (H460, exposure time 7 days), 5 nM; in data set [4] (P388, exposure time 1 day), 140 ± 53 nM; in data set [4] (P388, exposure time 3 days), 15 ± 8.7 nM; in data set [4] (P388, exposure time 7 days), 20 nM; in data set [5] (LS180, exposure time 3 days), > 50 nM. In addition, the IC50 is 17.5 nM in data set [5] (LS180, exposure time 7 days); > 2500 nM in data set [6] (MCF7, exposure time 3 days); 31.3 ± 12.4 nM in data set [6] (MCF7, exposure time 7 days); > 50 nM in data set [7] (K562, exposure time 1 day); 18.8 ± 8.8 nM in data set [7] (K562, exposure time 3 days). The “fold less active on per molar basis than vincristine and Navelbine” value in data set [4] (in vitro tests, Table I and FIG. 5) lay within 10 to 15 fold.

`CCC1=C[C@@H]2CN(C1)Cc1c([nH]c3ccccc13)[C@@](C(=O)OC)(c1cc3c(cc1OC)N(C)[C@H]1[C@@](O)(C(=O)OC)[C@H](OC(C)=O)[C@]4(CC)C=CCN5CC[C@]31[C@@H]54)C2` [Navelbine, 3′,4′-didehydro-4′-deoxy-C′-norvincaleukoblastine-di-L-tartrate]: the anti-tumor potency compared entry in data set [1] is on record as “less potent than AHVB”. The “Mortality (surviving rats/injected rats)” value in data set [2] (5 mg/kg) and in data set [2] (10 mg/kg) was 0 surviving rats/injected rats throughout. Besides, the “subacutely toxic dosage” value in data set [2] worked out at 2.0 mg/kg. For the same molecule, the IC50 in data set [3] (setting [8]) was 0.3 nM; in data set [3] (setting [9]), > 0.5 nM; in data set [4] (Mus musculus, P388, 24 h), 20 nM; in data set [4] (Mus musculus, P388, 72 h), 0.7 ± 0.3 nM; in data set [4] (Mus musculus, P388, 168 h) it was 2.5 nM; in data set [5] (setting [10]), > 50 nM. For the same molecule, the IC50 in data set [5] (setting [11]) was 0.5 nM; in data set [6] (setting [12]) it was > 2500 nM; in data set [6] (setting [13]), 2.6 ± 1.6 nM; in data set [7] (setting [14]), > 50 nM; in data set [7] (setting [15]), 2.5 ± 2.2 nM.

Take `CC[C@]1(O)C[C@H]2CN(CCc3c([nH]c4ccccc34)[C@@](C(=O)OC)(c3cc4c(cc3OC)N(C=O)[C@H]3[C@@](O)(C(=O)OC)[C@H](OC(C)=O)[C@]5(CC)C=CCN6CC[C@]43[C@@H]65)C2)C1` [Vincristine, Sulfate of 22-oxovincaleukoblastine]: in data set [1] (single intraperitoneal subacutely toxic dose, FIG. 2), the recurrence of tumors entry is “not observed”. Further, the “Mortality (surviving rats/injected rats)” value in data set [2] (1 mg/kg) is given as 0 surviving rats/injected rats. Besides, the “subacutely toxic dosage” value in data set [2] was determined as 0.7 mg/kg. Also, the IC50 in data set [3] (setting [8]) is 3.5 nM; in data set [3] (setting [9]) it was 2.5 nM; in data set [4] (Mus musculus, P388, 24 h), 11 ± 3.6 nM; in data set [4] (Mus musculus, P388, 72 h), 1 ± 0.3 nM; in data set [4] (Mus musculus, P388, 168 h), 2 nM; in data set [5] (setting [10]), > 50 nM. Further, the IC50 in data set [5] (setting [11]) was 1.5 nM; in data set [6] (setting [12]), > 2500 nM; in data set [6] (setting [13]), 2.6 ± 1.6 nM; in data set [7] (setting [14]) it was > 50 nM; in data set [7] (setting [15]) it was 1.5 ± 0.4 nM.
